# Reference: ChEMBL document CHEMBL1124021, “Novel type of potential anticancer agents derived from chrysophanol and emodin. Some structure-activity relationship studies” (1988)
# Test system: L1210
# Assay: In vitro inhibition of L1210 mouse leukemia cell proliferation.
# Type: functional
# Conditions: read-out: ID50 (the source's name)
row,IC50 [µM],Structure (SMILES)
1,23.4,COc1cccc2c1C(=O)c1c(O)cc(CN(CCO)CCO)cc1C2=O
2,5.92,O=C1c2cccc(O)c2C(=O)c2c(O)cc(CN(CCO)CCO)cc21
3,11.9,CCN(CC)Cc1cc(OC)c2c(c1)C(=O)c1cccc(O)c1C2=O
4,> 27.6,COc1cc(OC)c2c(c1)C(=O)c1cc(CN(CCO)CCO)cc(OC)c1C2=O
5,6.91,CCN(CC)Cc1cc(OC)c2c(c1)C(=O)c1cc(OC)cc(OC)c1C2=O
6,> 50,COc1cccc2c1C(=O)c1c(OC)cc(CN(CCO)CCO)cc1C2=O
7,1.16,CCN(CC)Cc1cc(O)c2c(c1)C(=O)c1cc(OC)cc(O)c1C2=O
8,13.7,COc1cc(O)c2c(c1)C(=O)c1cc(CN(CCO)CCO)cc(O)c1C2=O
9,128,CCN(CC)Cc1cc(OC)c2c(c1)C(=O)c1cccc(OC)c1C2=O
10,> 393,Cc1cc(O)c2c(c1)C(=O)c1cccc(O)c1C2=O [CHRYSOPHANOL]
11,2.75,CCN(CC)Cc1cc(O)c2c(c1)C(=O)c1cccc(O)c1C2=O

row,Structure (SMILES),IC50 [µM]
1,O=C1c2cccc(O)c2C(=O)c2c(O)cc(CN(CCCl)CCCl)cc21,0.13
2,COc1cc(CN(CCCl)CCCl)cc2c1C(=O)c1c(O)cccc1C2=O,1.4
3,Cc1cc(O)c2c(c1)C(=O)c1cc(O)cc(O)c1C2=O [EMODIN],13.3
4,COc1cc(O)c2c(c1)C(=O)c1cc(CN(CCCl)CCCl)cc(O)c1C2=O,0.023
5,COc1cc(OC)c2c(c1)C(=O)c1cc(CN(CCCl)CCCl)cc(OC)c1C2=O,2.66
6,COc1cc(OC)c2c(c1)C(=O)c1cc(CN(CCCl)CCCl)cc(O)c1C2=O,1.75
7,COc1cccc2c1C(=O)c1c(OC)cc(CN(CCCl)CCCl)cc1C2=O,12.5
